In patent publication US20240218022A1, “ANTI-VISTA MACROCYCLIC PEPTIDES AND COMPOSITIONS” (BRISTOL-MYERS SQUIBB COMPANY, priority 2022, published 2024):
Like-named read-outs stand apart in the source and are kept apart here. One block for each compound: values may come before it. Starred links: 1 amine or outer side, 2 acyl side, 3 side chain; linkers in the order of their positions; H or OH if unused. Positions of bridges follow the written chain, without caps; N, C: chain ends. Non-standard residues stand in square brackets, D forms with d. Residues, ends and D or L forms follow the SMILES beside them. Phe(3-Me) = Cc1cccc(C[C@H](N)C(=O)O)c1; γGlu = O=C(O)[C@H](CCC(=O)[*:2])N[*:1]; 2Nal = N[C@@H](Cc1ccc2ccccc2c1)C(=O)O; βAsp = O=C(O)[C@H](CC(=O)[*:2])N[*:1]; NMeL = CN[C@@H](CC(C)C)C(=O)O; Ahp(2) = CCCCC[C@H](N)C(=O)O; NMeNle = CCCC[C@H](NC)C(=O)O; Tle = CC(C)(C)[C@H](N)C(=O)O; NHexGly = CCCCCCNCC(=O)O; Nle = CCCC[C@H](N)C(=O)O; Orn = NCCC[C@H](N)C(=O)O; Aun = NCCCCCCCCCCC(=O)O; AEEA = NCCOCCOCC(=O)O

Target: T1, mouse VISTA (mVISTA) (Mus musculus, UniProt Q9D659)
T1 construct: expressed in transfected cells; host or cells: Human embryonic kidney 293T cells
T1 sequence (Q9D659 33-308): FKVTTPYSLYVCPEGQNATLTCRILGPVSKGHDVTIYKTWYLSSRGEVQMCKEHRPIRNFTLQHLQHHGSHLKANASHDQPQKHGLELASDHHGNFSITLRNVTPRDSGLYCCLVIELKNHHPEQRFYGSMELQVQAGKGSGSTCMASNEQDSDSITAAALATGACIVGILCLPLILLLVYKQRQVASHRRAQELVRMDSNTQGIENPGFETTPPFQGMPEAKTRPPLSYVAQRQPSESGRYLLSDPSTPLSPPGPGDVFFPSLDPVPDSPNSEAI
Assay: Cell-Based Binding High-Content Assay For mVISTA (HC CBA mVISTA)
In short: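 293T cells expressing mouse VISTA, with compounds added either after seeding ("no wash") or before seeding and then washed out after 1 h. Biotinylated peptide 2 nM for 30 min at room temperature, then detection with Alexa 647–streptavidin. After fixation with Hoechst stain, plates were high-content imaged; IC50 from four-parameter logistic fit.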

[1] = 293T cells expressing mouse VISTA, competition with biotinylated peptide (2 nM), read-out: HC CBA mVISTA IC50
[2] = cell-based binding high-content assay, mVISTA, the 16th table, read-out: HC CBA mVISTA IC50

SMILES: CCCCCCN1CC(=O)N[C@@H](Cc2ccc(O)cc2)C(=O)N[C@@H](CC(C)C)C(=O)N[C@@H](CC(N)=O)C(=O)N[C@@H](CCCNC(=N)N)C(=O)N[C@@H](CC(C)C)C(=O)N[C@@H](CCCCC)C(=O)N2CCC[C@H]2C(=O)N[C@@H](C(C)C)C(=O)N[C@@H](CC(N)=O)C(=O)N[C@H](C(=O)NCC(N)=O)CSCC(=O)N[C@@H](Cc2ccccc2)C(=O)N[C@@H](Cc2ccc(O)cc2)C(=O)N[C@@H](CC(=O)O)C1=O [Example 1027] ({CH2CO}-FYD[NHexGly]YLNRL[Ahp(2)]PVNCG-NH2; thioether N-14)
IC50 [1]: 36.8 nM

SMILES: CCCCCCN1CC(=O)N[C@@H](Cc2ccc(O)cc2)C(=O)N[C@@H](C(C)C)C(=O)NCC(=O)N[C@@H](CCCNC(=N)N)C(=O)N[C@@H](CC(C)C)C(=O)N[C@@H](CCCCC)C(=O)N2CCC[C@H]2C(=O)N[C@@H](C(C)C)C(=O)N[C@@H](CC(=O)O)C(=O)N[C@H](C(=O)NCC(N)=O)CSCC(=O)N[C@@H](Cc2ccccc2)C(=O)N[C@@H](Cc2ccc3ccccc3c2)C(=O)N[C@@H](CC(=O)O)C1=O [compound 1324] ({CH2CO}-F[2Nal]D[NHexGly]YVGRL[Ahp(2)]PVDCG-NH2; thioether N-14)
IC50 (read-out: HC CBA mVISTA IC50): 48.2 nM

SMILES: CCCCCCN1CC(=O)N[C@@H](Cc2ccc(O)cc2)C(=O)N[C@@H](CCCC)C(=O)NCC(=O)N[C@@H](CCCNC(=N)N)C(=O)N[C@@H](CC(C)C)C(=O)N[C@@H](CCCCC)C(=O)N2CCC[C@H]2C(=O)N[C@@H](C(C)C)C(=O)N[C@@H](CCC(=O)O)C(=O)N[C@H](C(=O)NCC(N)=O)CSCC(=O)N[C@@H](Cc2ccc3ccccc3c2)C(=O)N[C@@H](Cc2ccc(O)cc2)C(=O)N[C@@H](CC(=O)O)C1=O [Ex 1287] ({CH2CO}-[2Nal]YD[NHexGly]Y[Nle]GRL[Ahp(2)]PVECG-NH2; thioether N-14)
IC50 [2]: 42.7 nM

SMILES: CCCCCCN1CC(=O)N[C@@H](Cc2ccc(O)cc2)C(=O)N[C@@H](C(C)C)C(=O)NCC(=O)N[C@@H](CCCNC(=N)N)C(=O)N[C@@H](CC(C)C)C(=O)N[C@@H](CCCCC)C(=O)N2CCC[C@H]2C(=O)N[C@@H](C(C)C)C(=O)N[C@@H](CC(=O)O)C(=O)N[C@H](C(=O)NCC(N)=O)CSCC(=O)N[C@@H](Cc2ccc3ccccc3c2)C(=O)N[C@@H](Cc2ccc(O)cc2)C(=O)N[C@@H](CC(=O)O)C1=O [Ex 1283] ({CH2CO}-[2Nal]YD[NHexGly]YVGRL[Ahp(2)]PVDCG-NH2; thioether N-14)
IC50 [2]: 18.9 nM

SMILES: CCCCCCN1CC(=O)N[C@@H](Cc2ccc(O)cc2)C(=O)N[C@@H](C(C)C)C(=O)NCC(=O)N[C@@H](CCCNC(=N)N)C(=O)N[C@@H](CC(C)C)C(=O)N[C@@H](CCCCC)C(=O)N2CCC[C@H]2C(=O)N[C@@H](C(C)C)C(=O)N[C@@H](CC(=O)O)C(=O)N[C@H](C(=O)N[C@@H](CO)C(=O)N[C@@H](CCCCN)C(=O)N[C@@H](CC(N)=O)C(=O)O)CSCC(=O)N[C@@H](Cc2ccc3ccccc3c2)C(=O)N[C@@H](Cc2ccc(O)cc2)C(=O)N[C@@H](CC(=O)O)C1=O [Example 1163] ({CH2CO}-[2Nal]YD[NHexGly]YVGRL[Ahp(2)]PVDCSKN-OH; thioether N-14)
IC50 [1]: 22.6 nM

Results, then the compound that gave them:

IC50 (read-out: HC CBA mVISTA IC50): 33 nM
SMILES: CCCCCCN1CC(=O)N[C@@H](Cc2ccc(O)cc2)C(=O)N[C@@H](CC(C)C)C(=O)N[C@@H](CC(N)=O)C(=O)N[C@@H](CCCN)C(=O)N(C)[C@@H](CC(C)C)C(=O)N[C@@H](CCCCC)C(=O)N2CCC[C@H]2C(=O)N[C@@H](C(C)(C)C)C(=O)N[C@@H](CO)C(=O)N[C@H](C(=O)N[C@@H](CCC(=O)NCCCCCCCCCCC(=O)O)C(=O)O)CSCC(=O)N[C@@H](Cc2ccccc2)C(=O)N[C@@H](Cc2ccc(O)cc2)C(=O)N[C@@H](CC(=O)O)C1=O [Example 2138] ({CH2CO}-FYD[NHexGly]YLN[Orn][NMeL][Ahp(2)]P[Tle]SC[γGlu][Aun]-OH; thioether N-14)

IC50 (cell-based binding high-content assay, mVISTA, read-out: HC CBA miPr ISTA IC50): 14.5 nM
SMILES: CCCCCCN1CC(=O)N[C@@H](Cc2ccc(O)cc2)C(=O)N[C@@H](CC(C)C)C(=O)N[C@@H](CC(N)=O)C(=O)N[C@@H](CCCNC(=N)N)C(=O)N(C)[C@@H](CC(C)C)C(=O)N[C@@H](CCCCC)C(=O)N2CCC[C@H]2C(=O)N[C@@H](C(C)(C)C)C(=O)N[C@@H](CO)C(=O)N[C@H](C(=O)N[C@@H](CC(=O)NCCOCCOCC(=O)N[C@@H](CC(=O)O)C(=O)NCCOCCOCC(=O)NCCCCCCCCCCC(=O)O)C(=O)O)CSCC(=O)N[C@@H](Cc2ccccc2)C(=O)N[C@@H](Cc2ccc(O)cc2)C(=O)N[C@@H](CC(=O)O)C1=O [compound 2031] ({CH2CO}-FYD[NHexGly]YLNR[NMeL][Ahp(2)]P[Tle]SC[βAsp][AEEA]D[AEEA][Aun]-OH; thioether N-14)

IC50 (read-out: HC CBA mVISTA IC50): 28.7 nM
SMILES: CCCCCCN1CC(=O)N[C@@H](Cc2ccc(O)cc2)C(=O)N[C@@H](CCCC)C(=O)N[C@@H](CC(N)=O)C(=O)N[C@@H](CCCNC(=N)N)C(=O)N[C@@H](CC(C)C)C(=O)N[C@@H](CCCCC)C(=O)N2CCC[C@H]2C(=O)N[C@@H](C(C)C)C(=O)N[C@@H](CC(=O)O)C(=O)N[C@H](C(=O)NCCOCCOCC(=O)N[C@@H](CCC(=O)NCCOCCOCC(=O)NCCCCCCCCCCC(=O)O)C(=O)O)CSCC(=O)N[C@@H](Cc2cccc(C)c2)C(=O)N[C@@H](Cc2c[nH]c3ccccc23)C(=O)N[C@@H](CC(=O)O)C1=O [compound 2222] ({CH2CO}-[Phe(3-Me)]WD[NHexGly]Y[Nle]NRL[Ahp(2)]PVDC[AEEA][γGlu][AEEA][Aun]-OH; thioether N-14)

IC50 (read-out: HC CBA mVISTA IC50): 25.1 nM
SMILES: CCCCCCN1CC(=O)N[C@@H](Cc2ccc(O)cc2)C(=O)N[C@@H](CC(C)C)C(=O)N[C@@H](CC(N)=O)C(=O)N[C@@H](CCCNC(=N)N)C(=O)N(C)[C@@H](CC(C)C)C(=O)N[C@@H](CCCCC)C(=O)N2CCC[C@H]2C(=O)N[C@@H](C(C)(C)C)C(=O)N[C@@H](CO)C(=O)N[C@H](C(=O)NCCOCCOCC(=O)N[C@@H](CCC(=O)NCCOCCOCC(=O)NCCCCCCCCCCC(=O)O)C(=O)O)CSCC(=O)N[C@@H](Cc2ccccc2)C(=O)N[C@@H](Cc2c[nH]c3ccccc23)C(=O)N[C@@H](CC(=O)O)C1=O [compound 2263] ({CH2CO}-FWD[NHexGly]YLNR[NMeL][Ahp(2)]P[Tle]SC[AEEA][γGlu][AEEA][Aun]-OH; thioether N-14)

IC50 [1]: 12.7 nM
SMILES: CCCCCCN1CC(=O)N[C@@H](Cc2ccc(O)cc2)C(=O)N[C@@H](CCCC)C(=O)N[C@@H](CC(=O)O)C(=O)N[C@@H](CCCNC(=N)N)C(=O)N[C@@H](CC(C)C)C(=O)N[C@@H](CCCCC)C(=O)N2CCC[C@H]2C(=O)N[C@@H](C(C)C)C(=O)N[C@@H](CC(=O)O)C(=O)N[C@H](C(=O)N[C@@H](CC(=O)O)C(N)=O)CSCC(=O)N[C@@H](Cc2ccccc2)C(=O)N[C@@H](Cc2ccc(O)cc2)C(=O)N[C@@H](CC(=O)O)C1=O [Example 1001] ({CH2CO}-FYD[NHexGly]Y[Nle]DRL[Ahp(2)]PVDCD-NH2; thioether N-14)

IC50 (read-out: HC CBA mVISTA IC50): 12.7 nM
SMILES: CCCCCCN1CC(=O)N[C@@H](Cc2ccc(O)cc2)C(=O)N[C@@H](CCCC)C(=O)N[C@@H](CC(N)=O)C(=O)N[C@@H](CCCNC(=N)N)C(=O)N(C)[C@@H](CCCC)C(=O)N[C@@H](CCCCC)C(=O)N2CCC[C@H]2C(=O)N[C@@H](C(C)C)C(=O)N[C@@H](CC(=O)O)C(=O)N[C@H](C(=O)NCC(=O)O)CSCC(=O)N[C@@H](Cc2ccccc2)C(=O)N[C@@H](Cc2cccc(C)c2)C(=O)N[C@@H](CC(=O)O)C1=O [compound 1345] ({CH2CO}-F[Phe(3-Me)]D[NHexGly]Y[Nle]NR[NMeNle][Ahp(2)]PVDCG-OH; thioether N-14)
